Test results: ChEMBL document CHEMBL1135952, “Successful bridging from a peptide to a non peptide antagonist at the human tachykinin NK-2 receptor” (Bioorg Med Chem Lett, 2002)

Columns and labels:
Substance-K receptor [1] = biological target: T1, Substance-K receptor (Homo sapiens, UniProt P21452); assay: Functional affinity was evaluated by measuring the intracellular calcium concentration in CHO cells transfected with the human Tachykinin receptor 2 using Fura-2; type: cell-based; conditions: read-out: pA2 (converted)
T1 sequence (P21452 whole entry): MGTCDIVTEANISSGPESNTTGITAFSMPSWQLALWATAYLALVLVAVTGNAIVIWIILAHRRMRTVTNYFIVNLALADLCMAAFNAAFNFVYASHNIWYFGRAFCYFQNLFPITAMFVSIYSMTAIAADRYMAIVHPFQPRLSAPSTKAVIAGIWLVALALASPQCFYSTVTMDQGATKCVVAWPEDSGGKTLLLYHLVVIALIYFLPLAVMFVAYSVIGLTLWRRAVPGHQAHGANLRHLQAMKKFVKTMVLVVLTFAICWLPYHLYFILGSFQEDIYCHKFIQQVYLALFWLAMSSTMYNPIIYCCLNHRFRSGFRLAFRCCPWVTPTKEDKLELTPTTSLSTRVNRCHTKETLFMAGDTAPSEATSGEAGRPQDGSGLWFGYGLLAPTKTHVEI

Substance-K receptor [2] = biological target: T1, Substance-K receptor; assay: Compound was tested for it's binding affinity against human Tachykinin receptor 2

| SMILES | Kb (Substance-K receptor [1]) | Ki (Substance-K receptor [2]) |
| --- | --- | --- |
| O=C(c1ccccc1C(=O)N(CCCN1CCSCC1)CCc1c[nH]c2ccccc12)N(CCCN1CCSCC1)CCc1c[nH]c2ccccc12 | 3.98 nM | 3.98 nM |
| O=C(c1ccccc1C(=O)N(CCCN1CCOCC1)CCc1c[nH]c2ccccc12)N(CCCN1CCOCC1)CCc1c[nH]c2ccccc12 |  | 31.6 nM |
| O=C(NCCc1c[nH]c2ccccc12)c1nccnc1C(=O)N(CCCN1CCOCC1)CCc1c[nH]c2ccccc12 |  | 501 nM |
| O=C(c1nccnc1C(=O)N(CCCN1CCOCC1)CCc1c[nH]c2ccccc12)N(CCCN1CCOCC1)CCc1c[nH]c2ccccc12 |  | 126 nM |

Now from value to molecule:

| Kb (Substance-K receptor [1]) | Ki (Substance-K receptor [2]) | SMILES |
| --- | --- | --- |
| 10 nM | 10 nM | CN(CCc1c[nH]c2ccccc12)C(=O)c1ccccc1C(=O)N(CCCN1CCSCC1)CCc1c[nH]c2ccccc12 |
|  | 2 nM | CN(C)CCN(C)C(=O)c1nccnc1C(=O)N[C@@H]1CC(=O)N[C@@H](Cc2c[nH]c3ccccc23)C(=O)N[C@@H](Cc2ccccc2)C(=O)N[C@H](Cc2ccccc2)CNC1=O |
